Results as given in US10576069B2, “Treatment for chemotherapy-induced cognitive impairment” (Panacea Pharmaceutical Inc., priority 2013, dated 2020).

Experiments:
[1] = system: human lung cancer cell line H460; assay: LDH analysis (membrane integrity) of H460 cancer cells; assay type: cell-based; conditions: H460, 3 days
Experimental: (§1) Cancer Cell Culture. The mouse liver cancer cell line BNLT3 (gift of Dr. Jack Wands, Brown University) and the human lung cancer cell line H460 (ATCC) were seeded into 96-well plates at a density of 4,000 cells/well and cultured at 37° C., 5% CO2, in DMEM (11965, Gibco) supplemented with 10% fetal bovine serum, 20 mM HEPES, 1 mM sodium pyruvate, and […] gentamycin (all reagents came from Gibco).
(§2) Cell Insults and Treatments. Determination of concentration for each anticancer drug in our experiments was based on its reported concentration in human cerebral spinal fluid (CSF) in chemotherapy, literature report of its neurotoxicity in culture, and our preliminary in vitro experimental data. […] For ROS examination, the neurons were insulted with both 100 μM of MTX and 25 μM of 5-FU by 15 d.i.v. PAN-811.Cl.H2O was added to cultures to final concentrations of 1.25, 2.5, 5, and 10 μM at the same time as addition of the anticancer drugs.
(§3) Quantitative Assays and Morphological Assessment. Cell membrane integrity and mitochondrial function of either neurons or cancer cells were measured with LDH and 3-(4,5-dimethylthiazol-2-yl)-5-(3-carboxymethoxyphenyl)-2-(4-sulfophenyl)-2H-tetrazolium [MTS] analyses, respectively. The latter has been used to quantify cell survival. For the LDH assay, a mixture of a 35 μL aliquot of culture supernatant and 17.5 μL of Mixed Substrate, Enzyme and Dye Solutions (Sigma) was incubated at room temperature (RT) for 30 minutes. For the MTS assay, 10 μL of MTS reagent (Promega) was added to a culture well containing neurons in 50 μL of medium. The preparations were incubated at 37° C. for 2 hours. The preparations for both assays were then spectrophotometrically measured at 490 nm using a 96-well plate reader (Mode 550, Bio-Rad). Neuronal cell death was morphologically determined based on the integrity of the cell soma and continuity of neuronal processes. The change in number of cancer cells was judged directly by cell density. Cells were photographed under an inverted phase contrast microscope (IX 70, Olympus) using 10× or 20× objective.
Data Analysis. Data were generated from 4-6 replicate wells, expressed as mean±standard deviation (SD), and statistically evaluated at a significance level of […] with one factor ANOVA or Student's t-test by using software […] (http://vassarstats.net/) followed by the Tukey HSD test. Figure symbols are as follows: #, P<0.05, and ##, P<0.01, compared with control; *, P<0.05, and **, P<0.01, compared with the insulted group; §§, P<0.01, compared with PAN-811 treated group by Student's t-test.

[2] = system: mixed cortical and striatal neurons; assay: LDH analysis (cell membrane leakage) of neurons insulted with anticancer drugs; assay type: cell-based; conditions: MTX 100 μM, 5-FU 25 μM, CDDP 3.5 μM
Experimental: Neuronal Cell Culture. Mixed cortical and striatal neurons from embryonic day 17 male Sprague-Dawley rats (tissue obtained from NIH) were seeded into poly-D-lysine coated 96-well plates at density of 50,000 cells/well and initially cultured at 37° C., 5% CO2, in neurobasal medium (NB) with B27 supplement (Invitrogen) containing full strength of AOs to obtain highly enriched (95%) neurons. Since AOs, including vitamin E, vitamin E acetate, superoxide dismutase (SOD), catalase (CAT), and GSH, are additives to culture medium, reduction of AO concentration in culture medium provides an approach to determine the level of OS involvement in a neurotoxic process. […]
(§4) Quantitative Assays and Morphological Assessment. Cell membrane integrity and mitochondrial function of either neurons or cancer cells were measured with LDH and 3-(4,5-dimethylthiazol-2-yl)-5-(3-carboxymethoxyphenyl)-2-(4-sulfophenyl)-2H-tetrazolium [MTS] analyses, respectively. The latter has been used to quantify cell survival. […] The preparations for both assays were then spectrophotometrically measured at 490 nm using a 96-well plate reader (Mode 550, Bio-Rad). Neuronal cell death was morphologically determined based on the integrity of the cell soma and continuity of neuronal processes. […]

[3] = system: human lung cancer cell line H460; assay: MTS analysis of H460 cancer cells; assay type: cell-based; conditions: H460, 3 days; 3.5 μM CDDP, 10 μM PAN-811 or both; FIG. 5(d)
Experimental: as §1
Cell Insults and Treatments. Determination of concentration for each anticancer drug in our experiments was based on its reported concentration in human cerebral spinal fluid (CSF) in chemotherapy, literature report of its neurotoxicity in culture, and our preliminary in vitro experimental data. […]
as §4

[4] = system: mouse liver cancer cell line BNLT3; assay: MTS analysis of BNLT3 cancer cells; assay type: cell-based; conditions: BNLT3, 3 days, 10 μM PAN-811 or both
Experimental: as §1, §2
as §3, with “The preparations were incubated at 37° C. for 2 hours.” left out, “The change in number of cancer cells was judged directly by cell density. Cells were photographed under an inverted phase contrast microscope (IX 70, Olympus) using 10× or 20× objective.” left out
Data Analysis. Data were generated from 4-6 replicate wells, expressed as mean±standard deviation (SD), and statistically evaluated at a significance level of 1% with one factor ANOVA or Student's t-test by using software […] […]

[5] = system: hydrogen peroxide-induced LDH release; conditions: PAN-811 at 10 μM; compared with untreated and H2O2-insulted group; cited from earlier work
[6] = system: MCAo infarct formation, brain edema, mortality; conditions: single i.v. bolus, 2 mg/kg, two-hour MCAo; cited from earlier work
[7] = 25 μM 5-FU, 10 μM PAN-811 or cotreatment, FIG. 5(f)
[8] = 3.5 μM CDDP, 10 μM PAN-811 or both, FIG. 5(g)
[9] = 100 μM MTX or 10 μM PAN-811, FIG. 5(e)

Structure (SMILES) | increase in LDH reading in the culture supernatant [1, 7] | increase in LDH reading in the culture supernatant [1, 8] | LDH increase in culture supernatant (cell membrane leakage) ([2]; neurons in 25% AO, 3 days, FIG. 1(c)) | increase in LDH reading ([2]; neurons, 12.5% AO condition, FIG. 2(b)) | reduction of MTS reading [3] | reduction of MTS reading ([4]; 3.5 μM CDDP, FIG. 4(f)) | increase in LDH reading in the culture supernatant [1, 9] | maximal protection against hydrogen peroxide-induced LDH release [5] | maximal protection (reduction of infarct volume) [6] | reduction of MTS reading ([4]; 100 μM MTX, FIG. 4(d))
O=c1[nH]cc(F)c(=O)[nH]1 [5-FU, 5-fluorouracil] | 124% |  |  |  |  |  |  |  |  | 
N.N.[Cl][Pt][Cl] [CDDP] |  | 71% | significant LDH increase | significant increases in LDH reading | 22% | 44% |  |  |  | 
CN(Cc1cnc2nc(N)nc(N)c2n1)c1ccc(C(=O)N[C@@H](CCC(=O)O)C(=O)O)cc1 [MTX, methotrexate] |  |  |  |  |  |  | 95% |  |  | 
NC(=S)N/N=C/c1ncccc1N [PAN-811, 3-aminopyridine-2-carboxaldehyde thiosemicarbazone] | 30% | 30% |  |  |  | 94% | 31% | 90% | 50% | the same level as MTX
